Experimental findings from US5753673A, “Quinolinecarboxylic acid derivatives” (Taisho Pharmaceutical Co., Ltd., priority 1994, dated 1998) are described below.

Where a name gives a salt, the structure may show the parent alone.

The first experiment deals with T1, serotonin 4 receptor (5-HT4) (Cavia porcellus, UniProt O70528).
T1 construct: from tissue; host or cells: longitudinal muscle strips of guinea pig ileum (Harley guinea pigs)
T1 sequence (O70528 whole entry): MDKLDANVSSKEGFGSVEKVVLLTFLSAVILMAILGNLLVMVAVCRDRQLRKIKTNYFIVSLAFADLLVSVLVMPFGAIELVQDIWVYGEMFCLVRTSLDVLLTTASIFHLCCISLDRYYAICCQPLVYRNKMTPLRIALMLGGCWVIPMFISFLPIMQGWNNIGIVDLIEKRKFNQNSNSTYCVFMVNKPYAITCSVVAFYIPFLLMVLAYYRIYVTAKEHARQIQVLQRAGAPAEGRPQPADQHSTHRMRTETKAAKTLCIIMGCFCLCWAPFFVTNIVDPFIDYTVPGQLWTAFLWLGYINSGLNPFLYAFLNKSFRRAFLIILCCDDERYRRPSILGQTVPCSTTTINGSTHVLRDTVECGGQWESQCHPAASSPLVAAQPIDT
Description: Stimulating activity on serotonin 4 receptor (twitch response in guinea pig ileum). It counts as cell-based.
Conditions: not given
On the procedure:
Stimulating activity on serotonin 4 receptor
From Harley guinea pigs weighing 250 to 400 g, a section of ileum 10 to 20 cm proximal to the ileocecal junction was removed. Longitudinal muscle strips obtained from the ileum were used for this assay. The preparations were suspended in Krebs' solution at 32 to 34° C., bubbled continuously with 95% O2 and 5% CO2, and subjected to initial tension of about 0.8 g. Responses were recorded isometrically. Twitch responses were evoked by electrical stimulation (0.2 Hz, 1 msec pulse duration). The preparations were stimulated at supramaximal voltage for 2 to 3 hours, and were then allowed to equilibrate for about 1 hour at submaximal voltage. […] The preparations were left for at least 45 minutes before cumulative addition of each agonist.
The quinolinecarboxylic acid derivatives of the present invention were employed as sample compounds. For comparison, the following compounds were employed. These compounds were diluted by dissolving them in distilled water or in DMSO.
The data obtained was analyzed by RS1 (BBN Software Product Co.).
Molecule `CC(=O)CCCN1C2CCC1CC(NC(=O)c1cc3ccccc3n(C(C)C)c1=O)C2` (stereo not drawn) [Compound 31, Endo-N-(8-(4-oxopentyl)-8-azabicyclo[3.2.1]oct-3-yl)-1-isopropyl-2-oxo-1,2-dihydro-3-quinolinecarboxamide] registered an EC50 of 52.3 nM.

As for `CSCCN1C2CCC1CC(NC(=O)c1cc3ccccc3n(C(C)C)c1=O)C2` (stereo not drawn) [Compound 17, Endo-N-(8-(2-(methylthio)ethyl)-8-azabicyclo[3.2.1]oct-3-yl)-1-isopropyl-2-oxo-1,2-dihydro-3-quinolinecarboxamide], the EC50 was determined as 48 nM.

`CC(C)n1c(=O)c(C(=O)NC2CC3CCC(C2)N3CCS(=O)(=O)c2ccccc2)cc2ccccc21` (stereo not drawn) [Compound 19, Endo-N-(8-(2-(phenylsulfonyl)ethyl)-8-azabicyclo[3.2.1]oct-3-yl)-1-isopropyl-2-oxo-1,2-dihydro-3-quinolinecarboxamide] displayed an EC50 of 86.6 nM.

In turn, `CC(=O)OCCCCCN1C2CCC1CC(NC(=O)c1cc3ccccc3n(C(C)C)c1=O)C2` (stereo not drawn) [Compound 9, Endo-N-(8-(5-acetoxypentyl)-8-azabicyclo[3.2.1]oct-3-yl)-1-isopropyl-2-oxo-1,2-dihydro-3-quinolinecarboxamide hydrochloride] gave an EC50 of 33 nM.

On to `CC(C)n1c(=O)c(C(=O)NC2CC3CCC(C2)N3CCCCCCO)cc2ccccc21` (stereo not drawn) [Compound 8, Endo-N-(8-(6-hydroxyhexyl)-8-azabicyclo[3.2.1]oct-3-yl)-1-isopropyl-2-oxo-1,2-dihydro-3-quinolinecarboxamide hydrochloride], for which the EC50 worked out at 62.3 nM.

Molecule `CC(=O)CN1C2CCC1CC(NC(=O)c1cc3ccccc3n(C(C)C)c1=O)C2` (stereo not drawn) [Compound 30, Endo-N-(8-(2-oxopropyl)-8-azabicyclo[3.2.1]oct-3-yl)-1-isopropyl-2-oxo-1,2-dihydro-3-quinolinecarboxamide hydrochloride] displayed an EC50 of 11.5 nM.

`COCCOCCN1[C@@H]2CC[C@H]1C[C@@H](OC(=O)c1cc3ccccc3n(C(C)C)c1=O)C2` [Compound 59, Endo-8-(2-(2-methoxyethoxy)ethyl)-8-azabicyclo[3.2.1]oct-3-yl 1-isopropyl-2-oxo-1,2-dihydro-3-quinolinecarboxylate hydrochloride]: the EC50 was determined as 73.7 nM.

With `CC(C)n1c(=O)c(C(=O)OC2CC3CCC(C2)N3CCCCCO)cc2ccccc21` (stereo not drawn) [Compound 40, Endo-8-(5-hydroxypentyl)-8-azabicyclo[3.2.1]oct-3-yl 1-isopropyl-2-oxo-1,2-dihydro-3-quinolinecarboxylate hydrochloride], the EC50 came to 25.5 nM.

As for `CC(C)n1c(=O)c(C(=O)O[C@H]2C[C@H]3CC[C@@H](C2)N3CCC#N)cc2ccccc21` [Compound 55, Endo-8-(2-cyanoethyl)-8-azabicyclo[3.2.1]oct-3-yl 1-isopropyl-2-oxo-1,2-dihydro-3-quinolinecarboxylate], the EC50 was 27.3 nM.

Turning to `CC(C)n1c(=O)c(C(=O)NC2CC3CCC(C2)N3CCC#N)cc2ccccc21` (stereo not drawn) [Compound 33, Endo-N-(8-(2-cyanoethyl)-8-azabicyclo[3.2.1]oct-3-yl)-1-isopropyl-2-oxo-1,2-dihydro-3-quinolinecarboxamide], the EC50 came out at 35.8 nM.

`CC(C)n1c(=O)c(C(=O)O[C@H]2C[C@H]3CC[C@@H](C2)N3CCN2CCOCC2)cc2ccccc21` [Compound 47, Endo-8-(2-morpholinoethyl)-8-azabicyclo[3.2.1]oct-3-yl 1-isopropyl-2-oxo-1,2-dihydro-3-quinoline-carboxylate dihydrochloride] had an EC50 of 30.8 nM.

Staying with this experiment, now noted: twitch response in guinea pig ileum; maximum contraction of sample compound = 100%; read-out: ED50 (concentration enhancing the twitch response by 50%).
For the molecule `CC(C)n1c(=O)c(C(=O)O[C@H]2C[C@H]3CC[C@@H](C2)N3c2nccs2)cc2ccccc21` [Compound 58, endo-8-(2-thiazolyl)-8-azabicyclo[3.2.1]oct-3-yl 1-isopropyl-2-oxo-1,2-dihydro-3-quinolinecarboxylate hydrochloride, reference compound], the EC50 was 1140 nM.
